Source: PMC13586308, “Cell type–selective targeting by heterobifunctional protein binders via in-cell enrichment” (Nature Communications, 2026)
Where two headings read alike, the source gives them in different places.

Assays:
[1] = biological target: T1, FKBP12 (Homo sapiens, UniProt P62942); experiment: competitive fluorescence polarization assay, binding to FKBP12; conditions: competitive FP assay
[2] = biological target: T2, BRD4^BD1 (Homo sapiens, UniProt O60885); experiment: competitive fluorescence polarization assay, BRD4 BD1 -/+ presenter protein; type: binding; conditions: for α BRD4^BD1 (binding cooperativity factor): ratio of binding in absence or presence of FKBP12
T2 construct: to the isolated BD1 and BD2 domains of BRD2, BRD3 and BRD4

[3] = biological target: T3, BRD4^BD2 (Homo sapiens, UniProt O60885); experiment: competitive fluorescence polarization assay, BRD4 BD2 -/+ presenter protein; type: binding; conditions: for α BRD4^BD2 (binding cooperativity factor): ratio of binding in absence or presence of FKBP12
T3 construct: to the isolated BD1 and BD2 domains of BRD2, BRD3 and BRD4

[4] = biological target: T1, FKBP12; experiment: NanoBRET FKBP12 in intact HEK293 cells; type: cell-based
[5] = biological target: T4, BRD4 (Homo sapiens, UniProt O60885); experiment: NanoBRET BRD4, transient BRD4-NanoLuc in HEK293T cells; type: cell-based; conditions: intact HEK293 cells
T4 construct: full-length BRD4 fused to NanoLuc at N terminus; expressed in transfected cells; host or cells: HEK293T
Method: The NanoBRET assay was performed as described previously[26],[39]. To study BRD4 engagement, we employed two models: cells stably expressing BRD4-NanoLuc and cells with transient BRD4-NanoLuc expression. For stable cell lines, the coding sequence of human BRD4 (Isoform B) was fused in-frame to NanoLuc luciferase under the control of the human ubiquitin C (UbC) promoter, with left and right homology arms targeting the AAVS1 locus in intron 1 of the PPP1R12C gene to facilitate genomic integration. PC3 prostate cancer cells were transfected with this construct and vectors expressing Cas9 and an sgRNA targeting the AAVS1 locus using Lipofectamine 3000 (Invitrogen). Successful integrands were selected with blasticidin. Expression of the fusion protein was confirmed by western blot. For transient experiments, full-length BRD4 fused to NanoLuc at N terminus, was cloned into an expression plasmid and transfected into HEK293T cells using FuGENE HD (Promega, E2312), with protein expression allowed for 20 h. Serially diluted inhibitors and BRD Tracer-02 (Promega, TracerDB ID: T000022) at the Tracer KD concentration (from TracerDB)[40] were dispensed into white 384-well plates (Greiner 781207) using an ECHO 550 acoustic dispenser (Labcyte). The cells were trypsinized, resuspended in Opti-MEM without phenol red (Life Technologies), and seeded at 2 × 10^5 cells/mL. After equilibration for 2 h at 37 °C/5% CO₂ following compound treatment, the NanoBRET® NanoGlo Substrate + Extracellular NanoLuc® Inhibitor (Promega, N2162) was added according to the manufacturer’s protocol, and filtered luminescence was measured on a PHERAstar plate reader (BMG Labtech) using a donor (450 nm BP) and acceptor (610 nm LP) filter pair. Competitive displacement data were analyzed using GraphPad Prism 9 with a normalized 3-parameter curve fit: Y = 100/(1 + 10^(X − log IC₅₀)). For BRET measurements after FKBP12 knockdown in stably expressing BRD4 Nano-Luc reporter cell line, 10 nL/per well of the FKBP12 PROTAC was pipetted to each well using Labcyte to achieve the final concentration of 200 nM and the plated cells were incubated over-night at 37 °C and 5% CO2. BRET measurements were performed as outlined above.

[6] = absence of FKBP12, 2 nM JQ1-FL tracer, read-out: Binding to BRD4^BD1 - FKBP12 Kd
[7] = presence of 15 µM FKBP12, read-out: Binding to BRD4^BD1 + FKBP12 Kd (converted)
[8] = absence of FKBP12, 2 nM JQ1-FL tracer, read-out: Binding to BRD4^BD2 - FKBP12 Kd
[9] = presence of 15 µM FKBP12, read-out: Binding to BRD4^BD2 + FKBP12 Kd (converted)

T1 sequence (P62942 whole entry): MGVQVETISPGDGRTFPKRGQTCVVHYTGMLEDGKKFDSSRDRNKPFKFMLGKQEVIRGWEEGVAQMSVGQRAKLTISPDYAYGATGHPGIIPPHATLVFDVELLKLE

SMILES	Kd [1]	Kd [2, 6]	Kd [2, 7]	α BRD4^BD1 (binding cooperativity factor) [2]	Kd [3, 8]	Kd [3, 9]	α BRD4^BD2 (binding cooperativity factor) [3]	IC50 [4]	IC50 [5]	nanoBRET BRD4 IC50 [5]
Cc1sc2c(c1C)C(c1ccc(Cl)cc1)=NC(CC(=O)N1CCC(N3CCC(n4cc(C5CN(Cc6ccccn6)C(=O)C6CCCC5N6S(=O)(=O)c5cc(Cl)cc(Cl)c5)nn4)CC3)CC1)c1nnc(C)n1-2 (centres unmarked) [a9c]	2.2 nM	280 ± 40 nM	180 ± 20 nM	1.6	310 ± 40 nM	650 ± 90 nM	0.5	107 nM	155 nM	
Cc1sc2c(c1C)C(c1ccc(Cl)cc1)=NC(CC(=O)N1CC(CN3CCC(Cn4cc(C5CN(Cc6ccccn6)C(=O)C6CCCC5N6S(=O)(=O)c5cc(Cl)cc(Cl)c5)nn4)CC3)C1)c1nnc(C)n1-2 (centres unmarked) [a12c]	1.8 nM	390 ± 50 nM	230 ± 20 nM	1.7	800 ± 100 nM	700 ± 90 nM	1.1	280 nM	748 nM	
Cc1sc2c(c1C)C(c1ccc(Cl)cc1)=NC(CC(=O)N1CCN(CCn3cc(COCC4CN(Cc5ccccn5)C(=O)C5CCCC4N5S(=O)(=O)c4cc(Cl)cc(Cl)c4)nn3)CC1)c1nnc(C)n1-2 (centres unmarked) [a4d]	1.1 nM	500 ± 60 nM	380 ± 50 nM	1.3			1	89 nM		none
Cc1sc2c(c1C)C(c1ccc(Cl)cc1)=NC(CC(=O)N1CC(CN3CCC(n4cc(COCC5CN(Cc6ccccn6)C(=O)C6CCCC5N6S(=O)(=O)c5cc(Cl)cc(Cl)c5)nn4)CC3)C1)c1nnc(C)n1-2 (centres unmarked) [a11d]	0.8 nM	480 ± 70 nM	40 ± 10 nM	12		700 ± 100 nM	1.8	165 nM	687 nM	
Cc1sc2c(c1C)C(c1ccc(Cl)cc1)=NC(CC(=O)N1CC(CN3CCC(n4cc(C5CN(Cc6ccccn6)C(=O)C6CCCC5N6S(=O)(=O)c5cc(Cl)cc(Cl)c5)nn4)CC3)C1)c1nnc(C)n1-2 (centres unmarked) [a11c]	0.7 nM		190 ± 30 nM	5.3		450 ± 70 nM	4.7	218 nM	1230 nM	
C=CC1CN(Cc2ccccn2)C(=O)C2CCCC1N2S(=O)(=O)c1cc(Cl)cc(-c2cn(CCOCCNC(=O)CC3N=C(c4ccc(Cl)cc4)c4c(sc(C)c4C)-n4c(C)nnc43)nn2)c1 (centres unmarked) [a1g]	46 nM		> 20000 nM				0.2	230 nM	1500 nM	
Cc1sc2c(c1C)C(c1ccc(Cl)cc1)=NC(CC(=O)N1CCC(CN3CCC(n4cc(C5CN(Cc6ccccn6)C(=O)C6CCCC5N6S(=O)(=O)c5cc(Cl)cc(Cl)c5)nn4)CC3)CC1)c1nnc(C)n1-2 (centres unmarked) [a7c]	3.5 nM	520 ± 80 nM	180 ± 30 nM	2.9	700 ± 100 nM	900 ± 200 nM	0.8	138 nM	665 nM	
C=CC1CN(Cc2cn(CCOCCNC(=O)CC3N=C(c4ccc(Cl)cc4)c4c(sc(C)c4C)-n4c(C)nnc43)nn2)C(=O)C2CCCC1N2S(=O)(=O)c1cc(Cl)cc(Cl)c1 (centres unmarked) [a1i]	10 nM			0.5	910 ± 160 nM		0.3	200 nM	560 nM	
Cc1sc2c(c1C)C(c1ccc(Cl)cc1)=NC(CC(=O)N1CCC(CN3CCC(Cn4cc(COCC5CN(Cc6ccccn6)C(=O)C6CCCC5N6S(=O)(=O)c5cc(Cl)cc(Cl)c5)nn4)CC3)CC1)c1nnc(C)n1-2 (centres unmarked) [a8d]	1.8 nM	160 ± 30 nM	84 ± 16 nM	1.9	130 ± 30 nM	120 ± 30 nM	1	228 nM	357 nM	
Cc1sc2c(c1C)C(c1ccc(Cl)cc1)=NC(CC(=O)NCCOCCn1cc(COCC3CN(CC(=O)N4CCC(C)CC4)C(=O)C4CCCC3N4S(=O)(=O)c3cc(Cl)cc(Cl)c3)nn1)c1nnc(C)n1-2 (centres unmarked) [a1dk]	0.47 nM	520 ± 90 nM	200 ± 40 nM	2.6	320 ± 60 nM	800 ± 100 nM	0.4	9.1 nM	1190 nM	
C=C[C@H]1CN(Cc2ccccn2)C(=O)[C@@H]2CCC[C@H]1N2S(=O)(=O)c1ccc(-c2cn(CCOCCOCCNC(=O)C[C@@H]3N=C(c4ccc(Cl)cc4)c4c(sc(C)c4C)-n4c(C)nnc43)nn2)c(Cl)c1 [a2h]	2.4 nM	210 ± 18 nM	2400 ± 200 nM		46 ± 10 nM	1300 ± 200 nM		170 nM	300 nM	
Cc1sc2c(c1C)C(c1ccc(Cl)cc1)=NC(CC(=O)NCCOCCn1cc(C3CN(Cc4ccccn4)C(=O)C4CCCC3N4S(=O)(=O)c3cc(Cl)cc(Cl)c3)nn1)c1nnc(C)n1-2 (centres unmarked) [a1c]	1 nM			0.3	590 ± 110 nM		0.4	22 nM	940 nM	
Cc1sc2c(c1C)C(c1ccc(C#CCNC(=O)COCCn3cc(COCC4CN(Cc5ccccn5)C(=O)C5CCCC4N5S(=O)(=O)c4cc(Cl)cc(Cl)c4)nn3)cc1)=NC(CC(=O)OC(C)(C)C)c1nnc(C)n1-2 (centres unmarked) [b3d]	1 nM	68 ± 9 nM	200 ± 30 nM	0.3	110 ± 30 nM		0.1	15 nM	266 nM	
Cc1sc2c(c1C)C(c1ccc(Cl)cc1)=NC(CC(=O)N1CCC(CN3CCC(Cn4cc(C5CN(Cc6ccccn6)C(=O)C6CCCC5N6S(=O)(=O)c5cc(Cl)cc(Cl)c5)nn4)CC3)CC1)c1nnc(C)n1-2 (centres unmarked) [a8c]	2.1 nM	170 ± 20 nM	150 ± 20 nM	1.1	190 ± 30 nM	160 ± 30 nM	1.2	178 nM	541 nM	
C=CC1CN(Cc2ccccn2)C(=O)C2CCCC1N2S(=O)(=O)c1cc(Cl)cc(-c2cn(CCOCCOCCNC(=O)CC3N=C(c4ccc(Cl)cc4)c4c(sc(C)c4C)-n4c(C)nnc43)nn2)c1 (centres unmarked) [a2g]	76 nM			0.4	580 ± 90 nM		0.4		3070 nM	
